# PubChem BioAssay (NCI)
#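 Grown in 96-well plates, cells were treated for 48 hours with each compound at five concentrations. Insufficient inhibition: endpoint recorded as highest concentration tested. The concentration for full growth arrest is given as TGI.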
# Legend:
# Experiment in all cases: NCI anticancer screen, dose series, 48 h
# DLD-1 colon = tested on: DLD-1 colon
# DMS 114 small cell lung = tested on: DMS 114 small cell lung
# KM20L2 colon = tested on: KM20L2 colon
# M19-MEL melanoma = tested on: M19-MEL melanoma
# RXF-631 renal = tested on: RXF-631 renal
# SNB-78 CNS = tested on: SNB-78 CNS
Compound,TGI (DLD-1 colon) [µM],TGI (DMS 114 small cell lung) [µM],TGI (KM20L2 colon) [µM],TGI (M19-MEL melanoma) [µM],TGI (RXF-631 renal) [µM],TGI (SNB-78 CNS) [µM]
O=[N+]([O-])c1ccc(-c2csc(=[N+]3CCCCC3)s2)cc1,> 100,8.03,> 100,> 45.9,> 100,> 100
CC[C@]12C=CCN3CCC4(c5cc([C@@]6(C(=O)OC)CC7CN(CCc8c6[nH]c6ccccc86)CC6CCCCC67)c(OC)cc5N(C)C4[C@](O)(C(=O)OC)C1OC(C)=O)[C@@H]32 (stereo partly specified),13.2,< 0.01,< 0.01,17.6,–,18.8
CC(C)(C)c1ccnc(N=C2N=C(Nc3cc(C(C)(C)C)ccn3)c3ccccc32)c1,> 100,–,59.6,> 100,–,75
CC(C)(C)N=NC(C)(C)N=C=O,> 100,> 100,> 100,> 100,–,> 100
COc1cc(/C=N/N=C(\N)NO)c([N+](=O)[O-])cc1OC,> 100,46.2,> 100,> 100,> 100,> 100
O=C1Nc2cc(F)ccc2C1=O,> 100,> 100,> 100,> 100,–,> 100
CCCCN(CCCC)CC(C(C)=O)C(c1ccccc1)c1c(O)c2ccccc2oc1=O (stereo unspecified),> 100,> 100,> 100,> 100,> 100,> 100
CNC(=O)CN(CC(=O)O)C(=O)NC,> 100,–,–,> 100,> 100,> 100
